# Experimental data taken from patent US7074742B2, “Pyridinyl amides and imides for use as fungicides” (E. I. du Pont de Nemours and Company, priority 2000, dated 2006).
# Tests used:
# Assay type in all cases: in vivo
# [1] = system: Puccinia recondita; test: TEST B: preventive spray on wheat seedlings, wheat leaf rust, disease rating; settings: 100 = 100% disease control, 0 = no control, concentration not marked in table
# [2] = system: Erysiphe graminis f. sp. tritici; test: TEST A: preventive spray on wheat seedlings, wheat powdery mildew, disease rating; settings: 100 = 100% disease control, 0 = no control relative to controls, concentration not marked in table
# [3] = system: Pyricularia oryzae; settings: preventive spray on rice seedlings; 100 = 100% disease control, 0 = no control; concentration not marked in table
# [4] = system: Plasmopara viticola; test: TEST E: preventive spray on grape seedlings, grape downy mildew, disease rating; settings: 100 = 100% disease control, 0 = no control, concentration not marked in table
# [5] = system: Phytophthora infestans; settings: preventive spray on tomato seedlings; 100 = 100% disease control, 0 = no control; concentration not marked in table
Compound,Test B disease control rating (wheat leaf rust) [1] [%],Test A disease control rating (wheat powdery mildew) [2] [%],Test C disease control rating (rice blast) [3] [%],Test E disease control rating (grape downy mildew) [4] [%],Test D disease control rating (potato and tomato late blight) [5] [%]
O=C(NCc1ncc(C(F)(F)F)cc1Cl)c1cnc(Cl)c(Cl)c1 [Cmpd 7],0,0,–,–,–
Nc1ncccc1C(=O)NCc1ncc(C(F)(F)F)cc1Cl [Cmpd 9],28,0,0,0,7
O=C(NCc1ncc(C(F)(F)F)cc1Cl)c1cncc(Br)c1 [Cmpd 10],9,0,74,0,16
O=C(NCc1ncc(C(F)(F)F)cc1Cl)c1cccnc1O [Cmpd 11],9,0,0,8,7
COc1ncccc1C(=O)NCc1ncc(C(F)(F)F)cc1Cl [Cmpd 12],19,0,0,24,7
CCOc1ncccc1C(=O)NCc1ncc(C(F)(F)F)cc1Cl [Cmpd 13],9,0,0,23,3
Cc1ccc(C(=O)NCc2ncc(C(F)(F)F)cc2Cl)c(Cl)n1 [Cmpd 14],19,0,90,98,100
O=C(NCc1ncc(C(F)(F)F)cc1Cl)c1cccnc1Oc1ccccc1 [Cmpd 15],38,0,30,8,7
O=C(NCc1ncc(C(F)(F)F)cc1Cl)c1cccnc1Sc1ccccc1 [Cmpd 16],9,0,100,8,34
Cc1ncccc1C(=O)NCc1ccc(Cl)nc1 [Cmpd 32],0,0,0,–,32
Cc1ncccc1C(=O)NCc1ccc(Oc2cccc(C(F)(F)F)c2)nc1 [Cmpd 33],–,91,–,–,71
COc1cc(C(=O)NCc2ncc(C(F)(F)F)cc2Cl)cc(Cl)n1 [Cmpd 34],44,0,–,–,31
